Results published in ChEMBL document CHEMBL5291721, “A preclinical secondary pharmacology resource illuminates target-adverse drug reaction associations of marketed drugs” (Nat Commun, 2023).

Target: T1, Androgen receptor (Rattus norvegicus, UniProt P15207)
T1 sequence (P15207 whole entry): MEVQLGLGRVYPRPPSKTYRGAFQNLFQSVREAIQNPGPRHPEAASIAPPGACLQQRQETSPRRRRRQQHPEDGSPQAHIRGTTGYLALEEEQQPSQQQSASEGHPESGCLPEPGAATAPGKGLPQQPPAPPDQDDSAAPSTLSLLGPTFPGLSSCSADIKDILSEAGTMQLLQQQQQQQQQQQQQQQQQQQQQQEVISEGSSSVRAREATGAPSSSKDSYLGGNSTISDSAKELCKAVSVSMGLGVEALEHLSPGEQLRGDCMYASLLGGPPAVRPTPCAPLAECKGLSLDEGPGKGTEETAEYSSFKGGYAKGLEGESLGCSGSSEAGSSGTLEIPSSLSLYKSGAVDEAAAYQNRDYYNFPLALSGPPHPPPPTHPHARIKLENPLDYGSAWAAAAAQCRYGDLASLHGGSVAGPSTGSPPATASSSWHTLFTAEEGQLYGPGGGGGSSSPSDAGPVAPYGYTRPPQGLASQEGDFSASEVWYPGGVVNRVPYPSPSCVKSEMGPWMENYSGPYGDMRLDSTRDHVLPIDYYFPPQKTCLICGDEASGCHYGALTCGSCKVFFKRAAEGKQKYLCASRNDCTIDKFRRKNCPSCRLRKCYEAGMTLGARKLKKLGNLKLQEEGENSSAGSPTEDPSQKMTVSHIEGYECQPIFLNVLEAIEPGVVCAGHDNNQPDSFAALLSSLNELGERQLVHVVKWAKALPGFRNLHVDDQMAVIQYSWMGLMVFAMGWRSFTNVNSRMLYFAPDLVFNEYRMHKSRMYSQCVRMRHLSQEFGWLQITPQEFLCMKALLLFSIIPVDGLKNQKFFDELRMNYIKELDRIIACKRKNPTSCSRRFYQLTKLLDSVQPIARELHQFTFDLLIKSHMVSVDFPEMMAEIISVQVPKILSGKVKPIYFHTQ
Assay type: functional
Further: assay procedure not described here.

AC50: > 30 µM
Compound: CCCCCCCC(=O)CC[C@@H]1[C@@H](C/C=C\CCCC(=O)O)[C@@H](O)C[C@H]1O [UNOPROSTONE]
